The values below come from PubChem BioAssay (NCI).

Structures are written as SMILES.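 Where inhibition never reached the appropriate level, the endpoint shown equals the highest concentration tested. Otherwise, values were interpolated linearly from a five-concentration, 48-hour dose response in 96-well plates. GI50 is the concentration that inhibits growth by half. The concentration for full growth arrest is given as TGI.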 Some results are limits rather than exact numbers.

Some test systems named below: MOLT-4 leukemia; OVCAR-5 ovarian; COLO 205 colon; HT29 colon; ACHN renal; MCF7 breast; SF-295 CNS; SK-MEL-2 melanoma; UACC-257 melanoma; CAKI-1 renal.
Holding throughout (assay): NCI-60 cell line screen, 48 h

For the molecule `Oc1c(C(Nc2cccc3ccccc23)c2ccccc2)ccc2cccnc12` (stereo not given), the GI50 with MOLT-4 leukemia is 2.41 µM; in the assay on OVCAR-5 ovarian, 7.32 µM; in the assay on COLO 205 colon it was 4.17 µM; in the assay with HT29 colon it was 5.57 µM; with ACHN renal, 3.55 µM; with MCF7 breast, 3.2 µM. For the same molecule, the GI50 in the assay with SF-295 CNS is 2.96 µM; with SK-MEL-2 melanoma, 6.58 µM; in the assay with UACC-257 melanoma it was 2.88 µM; with CAKI-1 renal it was 2.15 µM. Moreover, the TGI in the assay on MOLT-4 leukemia was above 100 µM; in the assay with OVCAR-5 ovarian it was above 100 µM; in the assay with COLO 205 colon it was 17.7 µM; in the assay on HT29 colon, above 100 µM; in the assay on ACHN renal, 28.6 µM; with MCF7 breast, above 100 µM. Moreover, the TGI in the assay on SF-295 CNS was above 100 µM; in the assay on SK-MEL-2 melanoma it was above 100 µM; with UACC-257 melanoma, 9.28 µM; in the assay with CAKI-1 renal, 6.54 µM.
`Cc1cc(Cc2cc(C)c(O)c(C)c2)cc(C)c1O`: the GI50 is 3.82 µM in the assay with MOLT-4 leukemia; 17.8 µM in the assay with OVCAR-5 ovarian; 32.9 µM in the assay with COLO 205 colon; 8.87 µM in the assay with HT29 colon; 12.1 µM with ACHN renal; 3.83 µM with MCF7 breast. Moreover, the GI50 in the assay with SF-295 CNS was 3.92 µM; with SK-MEL-2 melanoma, 3.65 µM; in the assay with UACC-257 melanoma it was 6.94 µM; in the assay with CAKI-1 renal, 3.74 µM. Moreover, the TGI was 27.8 µM in the assay with MOLT-4 leukemia; 61.9 µM in the assay with OVCAR-5 ovarian; above 100 µM in the assay with COLO 205 colon; 33.8 µM in the assay with HT29 colon; above 100 µM with ACHN renal; 53.7 µM with MCF7 breast. Moreover, the TGI worked out at 21.7 µM with SF-295 CNS, 11 µM in the assay on SK-MEL-2 melanoma, 62.2 µM in the assay with UACC-257 melanoma and 21.6 µM with CAKI-1 renal.
Turning to `Cc1cc(=O)oc2c(CN3CCCCC3)c(O)ccc12`, the TGI in the assay with MOLT-4 leukemia, in the assay on OVCAR-5 ovarian, in the assay on COLO 205 colon, in the assay with HT29 colon, in the assay with ACHN renal and in the assay on MCF7 breast was above 100 µM throughout. Moreover, the TGI in the assay on SF-295 CNS, in the assay with SK-MEL-2 melanoma, in the assay with UACC-257 melanoma and with CAKI-1 renal was above 100 µM in each case.
Turning to `COc1cc(N2CCN(C(C)C)CC2)ccc1Nc1nc(Nc2cccc3ncccc23)c2cc[nH]c2n1`, the GI50 in the assay on MOLT-4 leukemia was 7.51 µM; with OVCAR-5 ovarian, 2.5 µM; with COLO 205 colon, 1.38 µM; with HT29 colon it was 1.5 µM; in the assay on ACHN renal, 7.45 µM; in the assay with MCF7 breast, 1.3 µM. For the same molecule, the GI50 in the assay on SF-295 CNS is 5.46 µM; in the assay with SK-MEL-2 melanoma, 4.63 µM; in the assay on UACC-257 melanoma, 3.67 µM; in the assay on CAKI-1 renal, 10 µM. Moreover, the TGI in the assay with MOLT-4 leukemia is above 23.2 µM; with OVCAR-5 ovarian it was above 25 µM; with COLO 205 colon it was 5.96 µM; in the assay with HT29 colon, 5.54 µM; with ACHN renal, above 25 µM; in the assay on MCF7 breast, above 25 µM. Further, the TGI was 17.9 µM in the assay with SF-295 CNS, 11.5 µM with SK-MEL-2 melanoma, 8.14 µM in the assay with UACC-257 melanoma and above 25 µM in the assay on CAKI-1 renal.
Turning to `CCN(CC)C(=O)CC1=C(C)/C(=C/c2[nH]c(-c3ccc[nH]3)cc2OC)N=C1C`, the GI50 in the assay on MOLT-4 leukemia was 0.357 µM; with OVCAR-5 ovarian it was 5.19 µM; in the assay on COLO 205 colon it was 0.296 µM; in the assay on HT29 colon, 0.287 µM; in the assay on ACHN renal it was 0.374 µM; in the assay on MCF7 breast, 0.458 µM. Also, the GI50 is 0.361 µM with SF-295 CNS, 0.275 µM in the assay on SK-MEL-2 melanoma, 1.03 µM in the assay on UACC-257 melanoma and 0.383 µM in the assay with CAKI-1 renal. In addition, the TGI in the assay on MOLT-4 leukemia came to 39.4 µM; in the assay on OVCAR-5 ovarian, 60.9 µM; in the assay on COLO 205 colon it was 10.1 µM; in the assay on HT29 colon, 48.3 µM; in the assay on ACHN renal it was 1.97 µM; in the assay with MCF7 breast, 17.9 µM. Also, the TGI is 1.73 µM with SF-295 CNS, 0.799 µM in the assay with SK-MEL-2 melanoma, 4.85 µM in the assay with UACC-257 melanoma and 11.4 µM with CAKI-1 renal.
For the molecule `O=C(/C=C1\C(=O)N(Cc2ccc([N+](=O)[O-])cc2)c2ccccc21)c1ccc(OCCN2CCCCC2)cc1`, the GI50 in the assay with MOLT-4 leukemia is 0.456 µM; in the assay on OVCAR-5 ovarian it was 1.33 µM; with COLO 205 colon it was 1.64 µM; in the assay on HT29 colon it was 1.4 µM; in the assay on ACHN renal, 1.16 µM; in the assay with MCF7 breast, 1.43 µM. The GI50 is 1.78 µM in the assay on SF-295 CNS, 1.66 µM in the assay on SK-MEL-2 melanoma, 1.95 µM in the assay on UACC-257 melanoma and 1.07 µM with CAKI-1 renal. For the same molecule, the TGI in the assay with MOLT-4 leukemia is 2.73 µM; in the assay with OVCAR-5 ovarian it was 3.09 µM; in the assay on COLO 205 colon, 3.27 µM; with HT29 colon, 2.88 µM; in the assay with ACHN renal, 2.38 µM; in the assay with MCF7 breast, 4.1 µM. Moreover, the TGI in the assay with SF-295 CNS was determined as 4.12 µM; in the assay on SK-MEL-2 melanoma, 3.14 µM; in the assay with UACC-257 melanoma, 3.57 µM; with CAKI-1 renal, 2.26 µM.
With `C=CCn1c(=O)c2cnc(Nc3ccc(N4CCN(C)CC4)cc3)nc2n1-c1ccc2c(n1)[C@@](O)(CC)CC2`, the GI50 in the assay with MOLT-4 leukemia was 0.296 µM; in the assay on OVCAR-5 ovarian it was 1.2 µM; in the assay on COLO 205 colon, 0.336 µM; in the assay on HT29 colon it was 0.261 µM; in the assay on ACHN renal it was 0.161 µM; in the assay on MCF7 breast, 0.344 µM. For the same molecule, the GI50 in the assay with SF-295 CNS is 0.742 µM; in the assay with SK-MEL-2 melanoma, 0.332 µM; in the assay with UACC-257 melanoma, 1.75 µM; in the assay with CAKI-1 renal, 0.113 µM. Further, the TGI was 1.37 µM in the assay on MOLT-4 leukemia; 19.5 µM in the assay with OVCAR-5 ovarian; 2.57 µM in the assay on COLO 205 colon; 4.49 µM in the assay with HT29 colon; 36.8 µM in the assay with ACHN renal; above 42.8 µM with MCF7 breast. Also, the TGI with SF-295 CNS worked out at 18.7 µM; in the assay with SK-MEL-2 melanoma it was 2.44 µM; in the assay on UACC-257 melanoma, 18.1 µM; in the assay on CAKI-1 renal, 20.5 µM.
As for `COc1cc2c(c(OC)c1OC)C(=O)CC(c1cccc(NC(=O)c3ccc(Br)cc3)c1)O2` (stereo not given), the GI50 in the assay on MOLT-4 leukemia was 1.54 µM; with OVCAR-5 ovarian, above 100 µM; with COLO 205 colon, 3.17 µM; in the assay with HT29 colon, 2.77 µM; in the assay with ACHN renal, 3.02 µM; with MCF7 breast, 1.9 µM. Besides, the GI50 in the assay on SF-295 CNS was 2.6 µM; in the assay with SK-MEL-2 melanoma it was 2.16 µM; with UACC-257 melanoma it was 2.96 µM; with CAKI-1 renal, 2.25 µM. Also, the TGI in the assay with MOLT-4 leukemia is 4.19 µM; with OVCAR-5 ovarian, above 100 µM; in the assay with COLO 205 colon, above 100 µM; in the assay on HT29 colon it was above 100 µM; in the assay with ACHN renal, above 100 µM; with MCF7 breast, 49.3 µM. The TGI was above 100 µM in the assay on SF-295 CNS, 5.38 µM in the assay with SK-MEL-2 melanoma, 9.04 µM in the assay on UACC-257 melanoma and above 100 µM in the assay with CAKI-1 renal.
